From patent US9034866B2 (Genentech, Inc., priority 2012, dated 2015) come the findings set out here.

Experiment [1] relates to REL-A (p65) nuclear translocation in HeLa cells. Nature of the experiment: REL-A nuclear translocation assay (classical NF-kB signaling), high content imaging. In kind it is cell-based. Conditions: Homo sapiens, compounds 4.5 hours, then 10 ng/mL TNF-α for 30 minutes, read-out: REL-A HeLa Transloc Assay (IC50). The method in brief: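 HeLa cells in 10% FBS medium preincubated with compounds (0.2% DMSO final) for 4.5 hours, then stimulated with 10 ng/mL TNF-α for 30 minutes. Fixed cells stained with 400 ng/mL anti-REL-A antibody, Alexa488 secondary and DRAQ5; translocation quantified by imaging as nuclear to cytoplasmic signal ratio.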

Experiment [2] has as its target nuclear factor-kappa B (NF-kB)-inducing kinase (NIK) (Homo sapiens (Human), UniProt Q99558). Description: NIK Enzyme Inhibition Assay (Transcreener ADP fluorescence polarization). The class given is biochemical. Conditions: read-out: NIK ADP-FP (Ki uM). An outline of the steps: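 Baculovirus/insect-cell-expressed NIK (0.2-1 nM) incubated with compounds 1-3.5 h at 10 uM ATP. Buffer: 50 mM HEPES pH 7.2, 10 mM MgCl2, 2 mM DTT, 1% DMSO. ADP detected by Transcreener fluorescence polarization (ADP antibody, AlexaFluor 633 tracer) after EDTA quench.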
Background: Polarisation of emitted light reports the rotation of a fluorescent probe.

In experiment [3] the test system is p52 (NF-kB2) nuclear translocation in HeLa cells. Description: p52 nuclear translocation assay (non-classical NF-kB signaling), high content imaging. In kind it is cell-based. Conditions: Homo sapiens, 100 ng/mL anti-lymphotoxin beta receptor antibody for 5 hours, read-out: p52 HeLa Transloc Assay (IC50). An outline of the steps:
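HeLa cells in 10% FBS medium were treated with compound (0.2% DMSO final), then stimulated 5 h with 100 ng/mL anti-lymphotoxin beta receptor antibody. After fixation, cells were immunostained for p52 (2 ug/mL antibody) with DRAQ5 nuclear stain and imaged by high-content imaging. IC50 in µM was derived from the nuclear/cytoplasmic signal ratio.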

[4] abbreviates: purified NIK 0.2-1 nM, 10 uM ATP, Morrison's quadratic equation.

The structures appear in SMILES notation. Like-named read-outs stand apart in the source and are kept apart here. Where only a bound is given, the exact number is not on record here.

nuclear factor-kappa B (NF-kB)-inducing kinase (NIK), sequence (Q99558 whole entry): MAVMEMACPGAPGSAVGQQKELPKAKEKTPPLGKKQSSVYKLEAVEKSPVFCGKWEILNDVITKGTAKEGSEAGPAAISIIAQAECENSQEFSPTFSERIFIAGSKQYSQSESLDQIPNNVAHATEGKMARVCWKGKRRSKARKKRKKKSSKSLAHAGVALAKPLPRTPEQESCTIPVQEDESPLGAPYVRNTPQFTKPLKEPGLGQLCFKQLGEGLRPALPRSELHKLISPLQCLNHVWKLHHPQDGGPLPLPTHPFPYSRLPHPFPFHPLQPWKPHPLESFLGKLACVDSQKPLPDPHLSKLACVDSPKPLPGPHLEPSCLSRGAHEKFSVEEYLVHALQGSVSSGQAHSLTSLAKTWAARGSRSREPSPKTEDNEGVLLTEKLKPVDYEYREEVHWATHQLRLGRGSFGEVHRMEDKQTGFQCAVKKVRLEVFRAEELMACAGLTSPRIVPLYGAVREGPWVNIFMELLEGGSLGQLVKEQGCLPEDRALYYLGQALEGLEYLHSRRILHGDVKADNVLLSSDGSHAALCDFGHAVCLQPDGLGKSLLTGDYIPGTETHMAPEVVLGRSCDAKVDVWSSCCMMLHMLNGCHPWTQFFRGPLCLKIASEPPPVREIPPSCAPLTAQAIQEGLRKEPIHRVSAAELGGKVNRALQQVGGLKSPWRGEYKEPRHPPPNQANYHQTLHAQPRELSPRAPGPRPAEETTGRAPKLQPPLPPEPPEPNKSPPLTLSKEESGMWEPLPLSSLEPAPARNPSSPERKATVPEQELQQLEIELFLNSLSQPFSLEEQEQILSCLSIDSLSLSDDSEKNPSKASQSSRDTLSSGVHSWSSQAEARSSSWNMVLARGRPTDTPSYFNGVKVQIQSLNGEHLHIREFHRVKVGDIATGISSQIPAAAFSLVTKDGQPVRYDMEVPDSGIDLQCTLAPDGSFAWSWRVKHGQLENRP

In the case of `Cc1cc([C@](C)(O)C#Cc2cc3c(cc2F)C2CC(C2)n2c-3nc(C(N)=O)c2C(C)(C)O)no1` [Example 326], the IC50 was found to be 5.6 µM in experiment [1] (HeLa) and 1.2 µM in experiment [3] (HeLa, 5 h). For the same molecule, the inhibition constant (Ki) in experiment [2] (setting [4]) was 0.0057 µM.
The corresponding values for `Cc1cc([C@](C)(O)C#Cc2ccc3c(c2)-c2nc(C(N)=O)sc2CCO3)no1` [Example 7, 9-[(R)-3-hydroxy-3-(5-methyl-isoxazol-3-yl)-but-1-ynyl]-4,5-dihydro-6-oxa-3-thia-1-aza-benzo[e]azulene-2-carboxylic acid amide] are 20 µM, 0.0395 µM and 0.0002 µM.
On the same counts, the results for `CC(C)NC(=O)c1c(C(N)=O)nc2n1CCOc1ccc(C#C[C@]3(O)CCN(C)C3=O)cc1-2` are more than 20 µM, 0.316 µM and 0.0012 µM.
For `Cc1nc([C@](C)(O)C#Cc2cc3c(cc2F)C2CC(C2)c2c-3nc(C(N)=O)n2C)no1`, the IC50 was more than 20 µM in experiment [1] (HeLa) and 0.835 µM in experiment [3] (HeLa, 5 h). In addition, in experiment [2] (setting [4]), the inhibition constant Ki worked out at 0.0005 µM.
For `Cc1cc([C@](C)(O)C#Cc2ccc3c(c2)-c2nc(C(N)=O)cn2CCO3)no1` [Example 8, 9-[(R)-3-Hydroxy-3-(5-methyl-isoxazol-3-yl)-but-1-ynyl]-4,5-dihydro-6-oxa-1,3a-diaza-benzo[e]azulene-2-carboxylic acid amide], the IC50 in experiment [1] (HeLa) was determined as 20 µM; in experiment [3] (HeLa, 5 h), 0.672 µM. Besides, the Ki in experiment [2] (setting [4]) was found to be 0.001 µM.
The corresponding values for `Cc1nc2ccccc2n1Cc1c(C(N)=O)nc2n1C1CC(C1)c1ccc(C#C[C@]3(O)CCN(C)C3=O)cc1-2` are more than 20 µM, 2.9 µM and 0.00087 µM.
As for `CNC(=O)c1c(C(N)=O)nc2n1CCOc1cc(F)c(C#C[C@@](C)(O)c3cc(C)on3)cc1-2` [Example 99, 8-fluoro-9-[(R)-3-hydroxy-3-(5-methyl-isoxazol-3-yl)-but-1-ynyl]-4,5-dihydro-6-oxa-1,3a-diaza-benzo[e]azulene-2,3-di-carboxylic acid 2-amide 3-methylamide], the IC50 was 20 µM in experiment [1] (HeLa) and 0.0625 µM in experiment [3] (HeLa, 5 h). Also, the Ki in experiment [2] is 0.001 µM.
`Cn1nccc1Cn1c(C(N)=O)nc2c1C1CC(C1)c1cc(F)c(C#CC(C)(C)O)cc1-2` [Example 391]: the 50% inhibitory concentration (IC50) in experiment [1] (HeLa) is 20 µM; in experiment [3] (HeLa, 5 h), 0.0368 µM. Moreover, the inhibition constant Ki in experiment [2] (setting [4]) amounted to 0.002 µM.
For `Cc1cc([C@](C)(O)C#Cc2ccc3c(c2)-c2nc(C(N)=O)c(Cc4ccnn4C)n2C2CC3C2)no1`, the IC50 in experiment [1] (HeLa) is more than 20 µM; in experiment [3] (HeLa, 5 h), 1.7 µM. Also, the Ki in experiment [2] (setting [4]) was determined as 0.0002 µM.
The corresponding values for `Cc1nc([C@](C)(O)C#Cc2ccc3c(c2)-c2nc(C(N)=O)n(C)c2C2CC3C2)no1` [Example 426] are more than 20 µM, 0.406 µM and 0.0018 µM.
`Cc1c(C(N)=O)nc2n1C1CC(C1)c1cc(F)c(C#C[C@@](C)(O)c3ncccn3)cc1-2` [Example 321, 9-fluoro-10-[(3R)-3-hydroxy-3-pyrim-idin-2-yl-but-1-ynyl]-3-methyl-5,6,7,12-tet-rahydro-5,7-methanobenzo[c]imidazo[1,2-a]azepine-2-carboxamide]: the IC50 is more than 20 µM in experiment [1] (HeLa) and 3 µM in experiment [3] (HeLa, 5 h). Moreover, the Ki in experiment [2] (setting [4]) worked out at 0.012 µM.
`CC(C)(O)C#Cc1cc2c(cc1F)C1CC(C1)n1c-2nc(C(N)=O)c1C1(O)COC1` [Example 339, 9-fluoro-10-(3-hydroxy-3-methyl-but-1-ynyl)-3-(3-hydroxyoxetan-3-yl)-5,6,7,12-tetrahydro-5,7-methanobenzo[c]imi-dazo[1,2-a]azepine-2-carboxamide]: the IC50 in experiment [1] was more than 20 µM; in experiment [3], 2.6 µM. For the same molecule, the inhibition constant Ki in experiment [2] (setting [4]) is 0.007 µM.
Regarding `Cc1cc([C@](C)(O)C#Cc2ccc3c(c2)-c2nc(C(N)=O)c(C(F)(F)F)n2CCO3)no1` (racemic), the IC50 was more than 20 µM in experiment [1] (HeLa) and 4.5 µM in experiment [3] (HeLa, 5 h). For the same molecule, the Ki in experiment [2] (setting [4]) came out at 0.0049 µM.
Consider `CNC(=O)c1c(C(N)=O)nc2n1CCOc1ccc(C#C[C@@](C)(O)c3noc(C)n3)cc1-2` [Example 98, 9-[(R)-3-hydroxy-3-(5-methyl-[1,2,4]ox-adiazol-3-yl)-but-1-ynyl]-4,5-dihydro-6-oxa-1,3a-diaza-benzo[e]azulene-2,3-di-carboxylic acid 2-amide 3-methylamide], for which the half-inhibitory concentration (IC50) in experiment [1] (HeLa) was determined as 20 µM; in experiment [3] (HeLa, 5 h) it was 0.237 µM. Besides, the inhibition constant Ki in experiment [2] (setting [4]) stood at 0.002 µM.
On the same counts, the results for `NC(=O)c1cn2c(n1)-c1cc(C#CC3(O)CCc4cccnc43)c(F)cc1OCC2` (racemic) are more than 20 µM, 1.5 µM and 0.0009 µM.
Regarding `Cn1nccc1C(O)c1c(C(N)=O)nc2n1CCOc1cc(F)c(C#CC(C)(C)O)cc1-2` (racemic), the IC50 in experiment [1] (HeLa) was more than 20 µM; in experiment [3] (HeLa, 5 h) it was 2.4 µM. The Ki in experiment [2] (setting [4]) was 0.0015 µM.
The corresponding values for `Cc1cc([C@](C)(O)C#Cc2cc3c(cc2F)OCCn2c-3nc(C(N)=O)c2-c2cnn(CC(C)(C)O)c2)no1` (racemic) are more than 20 µM, 1.8 µM and 0.00127 µM.
On the same counts, the results for `CNC(=O)c1c(C(N)=O)nc2n1C1CC(C1)c1cc(F)c(C#CC(C)(C)O)cc1-2` (racemic) are more than 20 µM, 0.358 µM and 0.0022 µM.
In the case of `Cn1c(C(N)=O)nc2c1C1CC(C1)c1cc(F)c(C#C[C@@](C)(O)c3ncccn3)cc1-2` [Example 283, (R)-8-fluoro-9-(3-hydroxy-3-(pyrimidin-2-yl)but-1-yn-1-yl)-3-methyl-3,4,5,6-tetrahydro-4,6-methanobenzo[3,4]cyclo-hepta[1,2-d]imidazole-2-carboxamide], the IC50 in experiment [1] (HeLa) stood at 20 µM; in experiment [3] (HeLa, 5 h) it was 0.881 µM. For the same molecule, in experiment [2] (setting [4]), the Ki was 0.00016 µM.
On the same counts, the results for `CNC(=O)c1c(C(N)=O)nc2n1C1CC(C1)c1ccc(C#C[C@@](C)(O)c3ccccn3)cc1-2` are more than 20 µM, 0.83 µM and 0.0021 µM.
For `CNC(=O)c1c(C(N)=O)nc2n1CCOc1ccc(C#CC(C)(O)c3ccccn3)cc1-2` (stereo not drawn), the 50% inhibitory concentration (IC50) in experiment [1] (HeLa) was more than 20 µM; in experiment [3] (HeLa, 5 h) it was 1.4 µM. The Ki in experiment [2] (setting [4]) was determined as 0.0043 µM.

As a reminder, the IC50 is the concentration that gives 50% inhibition. The Ki is the dissociation constant of the complex between target and ligand, obtained from inhibition or displacement.
